The record followed here is patent publication US20210253598A1, “ARYL ANNULATED MACROCYCLIC INDOLE DERIVATIVES” (priority 2017, published 2021).

“And” between values parts separate entries of the source, which are not always exact repeats. Equal entries are not always repeated. Structures can show the parent of a compound that is named as a salt. Where two headings read alike, the source gives them in different places.

One data set deals with BCL-XL (Homo sapiens, UniProt Q07817). The data set is described as follows: Protein-protein interaction assay BCL-XL/Bad BH3 peptide, TR-FRET (BCL-XL assay, Assay 2). Format: binding. Conditions: His-BCL-XL / Bad BH3 peptide, median.
The target in another data set is BCL-2 (Homo sapiens, UniProt P10415). Put plainly: Protein-protein interaction assay BCL-2/Bad BH3 peptide, TR-FRET (BCL-2 assay, Assay 3). The data set is classed as binding. The note with it: His-BCL-2 / Bad BH3 peptide, median. (In general: In TR-FRET formats the signal depends on donor and acceptor labels being close together.)
Data set [1] deals with SUDHL5. Put plainly: Induction of caspase-3/7 activity in SUDHL5 cells (Assay 4). Format: cell-based. The essentials: (§1)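 Luminescent Caspase-Glo 3/7 read-out in SUDHL5 and SUDHL10 cells after 3 h compound exposure at 37 °C, followed by 1 h reagent incubation.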
Data set [2] deals with SUDHL10. Put plainly: Induction of caspase-3/7 activity in SUDHL10 cells (Assay 4). The data set is classed as cell-based. Put shortly:
as §1

For data set [3], the system named is SUDHL5. The data set is described as follows: Induction of cytotoxicity in SUDHL5 cells, CellTiter-Glo (Assay 6). The note with it: SUDHL5, 5 hours incubation, median, read-out: Cytotox SUDHL5 [M] (median). The data set is classed as cell-based. Put shortly: (§2)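 Run alongside apoptosis assays, this cytotoxicity measure used a 5-hour compound incubation at 37° C in humidified conditions, following overnight attachment. Cell viability was quantified by CellTiter-Glo luminescence.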
A general note: In ATP-based viability assays light output follows the ATP content of the culture.

The subject of data set [4] is SUDHL10. The data set is described as follows: Induction of cytotoxicity in SUDHL10 cells, CellTiter-Glo (Assay 6). The data set is classed as cell-based. The note with it: SUDHL10, 5 hours incubation, median, read-out: Cytotox SUDHL10 [M] (median). The essentials:
as §2

For data set [5], the system named is SUDHL5. The data set is described as follows: Anti-proliferative effect in SUDHL5 cells, CellTiter-Glo (Assay 7). The data set is classed as cell-based. The essentials: (§3)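 Overnight seeding at 37 °C, then 72 h treatment with compound; day 0 plate read at start. Luminescent ATP-based viability readout (CellTiter-Glo). IC50 normalised between day 0 and DMSO values.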

For the next data set, the system named is AMO-1. The data set is described as follows: Anti-proliferative effect in AMO-1 cells, CellTiter-Glo (Assay 7). Format: cell-based. The note with it: several values per example. The essentials: as §3
The next data set has as its system A2780. Put plainly: Anti-proliferative effect in A2780 cells, CellTiter-Glo (Assay 7). The data set is classed as cell-based. Conditions: Homo sapiens, A2780, 72 h, several values per example. The essentials:
as §3

In another data set the target is MCL-1 (Homo sapiens, UniProt Q07820, K194A/K197A/R201A). The data set is described as follows: Protein-protein interaction assay MCL-1/Noxa BH3 peptide, TR-FRET (MCL-1 assay, Assay 1). Conditions: MCL-1 Assay [M] (median), MBP-MCL-1 / Noxa BH3 peptide. The data set is classed as binding. The essentials:
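TR-FRET competition between compounds and a biotin-PEG Noxa BH3 tracer for 1 nM MBP-MCL-1 (residues 173-321). Incubation was 1 h at 22 °C in the dark, then overnight at 4 °C, in 50 mM Tris pH 7 buffer with KF and DTT, after a 10-min compound pre-equilibration. Normalized ratios were fitted with a 4-parameter Hill equation to give IC50.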

A further data set concerns MV-4-11. The data set is described as follows: Anti-proliferative effect in MV-4-11 cells, CellTiter-Glo (Assay 7). The data set is classed as cell-based. Conditions: several values per example. The essentials: as §3
Where [6] appears, read: Homo sapiens, SU-DHL-5, 3 h, SUDHL5, 3 hours treatment, Caspase-Glo 3/7, median, read-out: Caspase SUDHL5 [M] (median).
Setting [7] is: Homo sapiens, SU-DHL10, 3 h, SUDHL10, 3 hours treatment, Caspase-Glo 3/7, median, read-out: Caspase SUDHL10 [M] (median).
Where [8] appears, read: Homo sapiens, SU-DHL-5, 72 h, SUDHL5, 72 hours incubation, CellTiter-Glo, median, read-out: Antiproli SUDHL5 [M] (median).
[9] abbreviates: Homo sapiens, AMO1, 72 h, AMO-1, 72 hours incubation, CellTiter-Glo, read-out: Antiproli AMO-1.
The mark [10] stands for this setting: A2780, 72 hours incubation, CellTiter-Glo, read-out: Antiproli A2780.
Where [11] appears, read: read-out: Caspase SUDHL5 [M] (median), SUDHL5, 3 hours treatment, Caspase-Glo 3/7.
The mark [12] stands for this setting: read-out: Caspase SUDHL10 [M] (median), SUDHL10, 3 hours treatment, Caspase-Glo 3/7.
The mark [13] stands for this setting: read-out: Antiproli SUDHL5 [M] (median), SUDHL5, 72 hours incubation, CellTiter-Glo.
[14] abbreviates: read-out: Antiproli AMO-1, AMO-1, 72 hours incubation, CellTiter-Glo.
Setting [15] is: read-out: Antiproli A2780 [M], A2780, 72 hours incubation, CellTiter-Glo.

Sequence of MCL-1 (Q07820 173-321 K194A/K197A/R201A, looked up): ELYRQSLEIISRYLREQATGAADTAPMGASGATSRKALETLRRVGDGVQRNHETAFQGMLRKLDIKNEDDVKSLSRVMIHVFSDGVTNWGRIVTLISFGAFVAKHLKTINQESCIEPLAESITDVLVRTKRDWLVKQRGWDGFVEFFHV
Sequence of BCL-XL (Q07817 1-212): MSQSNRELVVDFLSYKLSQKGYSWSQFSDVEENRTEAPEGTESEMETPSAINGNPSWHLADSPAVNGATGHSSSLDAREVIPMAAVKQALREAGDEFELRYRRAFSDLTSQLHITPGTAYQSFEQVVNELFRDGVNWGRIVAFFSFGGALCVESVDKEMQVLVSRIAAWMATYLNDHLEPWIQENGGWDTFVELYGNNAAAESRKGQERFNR
Sequence of BCL-2 (P10415 1-211): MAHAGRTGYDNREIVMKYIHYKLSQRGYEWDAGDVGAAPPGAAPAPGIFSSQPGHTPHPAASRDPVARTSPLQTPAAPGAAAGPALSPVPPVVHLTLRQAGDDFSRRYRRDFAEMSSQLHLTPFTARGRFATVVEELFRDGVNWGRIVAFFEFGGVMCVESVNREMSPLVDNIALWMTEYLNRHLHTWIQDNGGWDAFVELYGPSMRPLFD
Description for BCL-2: The dose-dependent inhibition by the compounds described in this invention of the interaction between BCL-2 and the BH3 domain of Bad (both human) was determined using a steady state binding competition assay with time-resolved fluorescence energy transfer (TR-FRET) readout. For that purpose BCL-2 (amino acids 1-211, C-terminal fused to a hexahistidine (6×His) tag (SEQ ID 5) and a synthetic Bad BH3-derived peptide of sequence Biotin-PEG2-PEG2-[sequence]-Nle-[sequence]-amide (SEQ ID 4) served as protein receptor and tracer ligand respectively. The recombinant BCL-2 protein (expressed in E. coli) was purchased from BPS Bioscience (San Diego, Calif., USA). The Bad BH3-derived peptide can be obtained from e.g. Biosyntan (Berlin, Germany).
For that, 100-fold concentrated DMSO solutions were prepared by serial dilutions (1:3.4) of a 2 mM stock solution in a clear, 384-well microtiter plate (Greiner Bio-One, Frickenhausen, Germany). From there, 50 nl were transferred in a dark test plate (Greiner Bio-One, Frickenhausen, Germany). The assay was initiated by addition of 2 μl of a 2,5-fold concentrated His-BCL-2 solution (usually for a 1 nM end concentration in 5 μl reaction volume) in aqueous assay buffer [50 mM Tris/HCl pH 7, 100 mM sodium chloride (NaCl), 50 mM potassium fluoride (KF), 0.005% Tween-20, 2 mM DTT, 0.1% bovine gamma globulin (BGG)] to the compounds in the assay plate. This was followed by a 10-minute incubation step at 22° C. for pre-equilibration of the putative complex between His-BCL-2 and the compounds.
The mixture was incubated in the dark for one hour at 22° C. and then overnight at 4° C. The formation of BCL-2/Bad complexes was determined by measuring the resonance energy transfer of the anti-His-Eu-cryptate antibody to the streptavidin-XL665 present in the reaction. For that purpose, the fluorescence emission at 620 nm and 665 nm after excitation at 330-350 nm was measured in a TR-FRET measuring instrument, for instance a Rubystar or a Pherastar (both from BMG Lab Technologies, Offenburg, Germany) or a Viewlux (Perkin-Elmer). The ratio of the emission at 665 nm and at 622 nm was used as indicator of the amount of BCL-2/Bad complexes present.
The resulting data (ratio) were normalized, taking 0% inhibition as the mean value of control measurements (usually 32 data points) where all reagents were included. In this case 50 nl DMSO were used instead of compounds. […] IC50 values were determined by regression analysis based on a 4 parameter equation (minimum, maximum, IC50, Hill; Y=Max+(Min−Max)/(1+(X/IC50)^Hill) using the Screener Software (Genedata).

As to `CCc1c2c(nn1C)COCc1ccccc1Cn1c(C(=O)O)c(CCCOc3cccc4c3CCCC4)c3ccc(F)c-2c31` (racemic) [Example 77, (rac)-14-Ethyl-15-fluoro-13-methyl-1-(3-((5,6,7,8-tetrahydronaphthalen-1-yl)oxy)propyl)-4,9,11,13-tetrahydrobenzo[3,4]pyrazolo[4′,3′:9,10][1]oxa[6]azacycloundecino[8,7,6-hi]indole-2-carboxylic Acid], the IC50 against BCL-XL was above 20 µM; against BCL-2 it was 12.6 µM; with SUDHL5 [3] (Homo sapiens, SU-DHL-5, 5 h), 3e-06 M; with SUDHL10 [4] (Homo sapiens, SU-DHL10, 5 h), 6.2e-06 M; in the data set on SUDHL5 [5] (setting [8]), 5.8e-06 M; in the data set with AMO-1 (setting [9]), 7.22e-06 M. In the data set with A2780 (setting [10]), the IC50 was 1.02e-05 M. Moreover, the EC50 was found to be 2.4e-06 M in the data set on SUDHL5 [1] (setting [6]) and 8.4e-06 M in the data set on SUDHL10 [2] (setting [7]).
As for `Cc1nn(C)c2c1-c1c(F)ccc3c(CCCOc4cccc5ccccc45)c(C(=O)O)n(c13)Cc1ccccc1COC2` (racemic) [Example 80, (rac)-15-Fluoro-12,14-dimethyl-1-(3-(naphthalen-1-yloxy)propyl)-4,9,11,12-tetrahydrobenzo-[3,4]pyrazolo[4′,3′:9,10][1]oxa[6]azacycloundecino[8,7,6-hi]indole-2-carboxylic Acid], the IC50 is 7.6e-09 M at MCL-1; above 20 µM at BCL-XL; above 20 µM against BCL-2; 4.3e-06 M in the data set with SUDHL5 [3] (Homo sapiens, SU-DHL-5, 5 h); above 1.1e-05 M with SUDHL10 [4] (Homo sapiens, SU-DHL10, 5 h); 7.7e-06 M in the data set on SUDHL5 [5] (setting [8]). Further, the IC50 in the data set on AMO-1 (setting [9]) worked out at 2.57e-05 M; in the data set with A2780 (setting [10]) it was 1.78e-05 M. Moreover, the EC50 was 5.2e-06 M in the data set on SUDHL5 [1] (setting [6]) and above 2.5e-05 M with SUDHL10 [2] (setting [7]).
Take `CCc1c2c(nn1C)COCc1ccccc1Cn1c(C(=O)O)c(CCCOc3cccc4ccccc34)c3ccc(F)c-2c31` (single isomer, unassigned; enantiomer 1) [Example 71, (−)-4-Ethyl-3-fluoro-5-methyl-17-{3-[(naphthalen-1-yl)oxy]propyl}-5,7,9,14-tetrahydroindolo[7,1-fg]pyrazolo[3,4-d][2,8]benzoxazacycloundecine-16-carboxylic acid-N-ethylethanamine Salt (Enantiomer 1)]: the IC50 against MCL-1 was 1.2e-09 M; at BCL-XL, above 20 µM; at BCL-2, 12.8 µM; with SUDHL5 [3], 1.9e-06 M; with SUDHL10 [4], 3.6e-06 M; in the data set with SUDHL5 [5] (setting [13]), 2.5e-06 M. Besides, the IC50 is 4.81e-06 M in the data set with MV-4-11 (Homo sapiens, MV4-11, 72 h, read-out: Antiproli MV-4-11 [M], MV-4-11, 72 hours incubation, CellTiter-Glo); 3.48e-06 M with AMO-1 (setting [14]); 9.41e-06 M in the data set with A2780 (setting [15]). The values for the EC50 with SUDHL5 [1] (setting [11]) and with SUDHL10 [2] (setting [12]) were 1.6e-06 M and 4e-06 M, respectively.
Turning to `Cc1c2c(nn1C)COCc1cccnc1Cn1c(C(=O)O)c(CCCOc3cccc4ccccc34)c3ccc(Cl)c-2c31` (single isomer, unassigned; enantiomer 1) [Example 40, 3-Chloro-4,5-dimethyl-17-[3-(naphthalen-1-yloxy)propyl]-5,7,9,14-tetrahydropyrazolo-[4′,3′:9,10]pyrido[3′,2′:3,4][1,6]oxazacycloundecino[8,7,6-hi]indole-16-carboxylic acid-N-ethylethanamine Salt (Enantiomer 1)], the IC50 was 19.4 µM against BCL-XL; above 20 µM on BCL-2; 3.3e-06 M with SUDHL5 [3] (Homo sapiens, SU-DHL-5, 5 h); 8.3e-06 M with SUDHL10 [4] (Homo sapiens, SU-DHL10, 5 h); 2.2e-06 M in the data set on SUDHL5 [5] (setting [13]); 7.53e-06 M in the data set with AMO-1 (Homo sapiens, AMO1, 72 h, read-out: Antiproli AMO-1 [M], AMO-1, 72 hours incubation, CellTiter-Glo). Further, the IC50 in the data set with AMO-1 (setting [14]) worked out at 9.07e-06 M; with A2780 (setting [15]), 2.19e-05 M. Moreover, the EC50 in the data set on SUDHL5 [1] (setting [11]) was found to be 2.5e-06 M; with SUDHL10 [2] (Homo sapiens, SU-DHL10, 3 h, read-out: Caspase SUDHL10 [M] (median), SUDHL10, 3 hours treatment, Caspase-Glo 3/7), 1.4e-05 M.
Consider `Cc1c2c(nn1C)CN(C)Cc1ccccc1Cn1c(C(=O)O)c(CCCOc3cccc4ccccc34)c3cccc-2c31` (single isomer, unassigned; enantiomer 1) [Example 15, 4,5,8-Trimethyl-17-[3-(naphthalen-1-yloxy)propyl]-7,8,9,14-tetrahydro-5H-indolo[1,7-bc]-pyrazolo[4,3-e][2,8]benzodiazacycloundecine-16-carboxylic acid-N-ethylethanamine Salt (Enantiomer 1)], for which the IC50 is 6.9e-09 M against MCL-1; above 20 µM against BCL-XL; above 20 µM at BCL-2; 3.3e-06 M with SUDHL5 [3]; 1.1e-05 M in the data set on SUDHL10 [4]; 2.8e-06 M with SUDHL5 [5] (Homo sapiens, SU-DHL-5, 72 h, read-out: Antiproli SUDHL5 [M] (median), SUDHL5, 72 hours incubation, CellTiter-Glo). In addition, the IC50 with AMO-1 (setting [14]) was 6.25e-06 M and 5.63e-06 M; in the data set on A2780 (setting [15]), above 3.3e-05 M. For the same compound, the EC50 in the data set on SUDHL5 [1] (setting [11]) is 2.6e-06 M; in the data set with SUDHL10 [2] (setting [12]) it was 1.2e-05 M.
For `CCc1c2c(nn1C)COCc1ccccc1Cn1c(C(=O)O)c(CCCOc3cccc4cc(F)ccc34)c3ccc(F)c-2c31` (single isomer, unassigned; enantiomer 1) [Example 74, (−)-4-Ethyl-3-fluoro-17-{3-[(6-fluoronaphthalen-1-yl)oxy]propyl}-5-methyl-5,7,9,14-tetrahydroindolo[7,1-fg]pyrazolo[3,4-d][2,8]benzoxazacycloundecine-16-carboxylic acid-N-ethylethanamine Salt (Enantiomer 1)], the IC50 at MCL-1 was 9.2e-10 M; against BCL-XL, above 20 µM; at BCL-2, 19.8 µM; in the data set on SUDHL5 [3], 1.1e-06 M; in the data set with SUDHL10 [4], 1.4e-06 M; in the data set on SUDHL5 [5] (setting [13]), 1.3e-06 M. Also, the IC50 in the data set with MV-4-11 (read-out: Antiproli MV-4-11, MV-4-11, 72 hours incubation, CellTiter-Glo) was 3.65e-06 M; in the data set on AMO-1 (setting [14]), 1.78e-06 M. Also, the EC50 was 8.2e-07 M with SUDHL5 [1] (setting [11]) and 1.2e-06 M with SUDHL10 [2] (setting [12]).
